The text below walks through data of patent US12428406B2 (PMV Pharmaceuticals, Inc., priority 2019, dated 2025).

The target in the experiment is T1, p53 Y220C (Homo sapiens, UniProt P04637, Y220C).
T1 construct: The recombinant protein was a truncation mutant containing only amino acids 94-312 of p53; made in house; host or cells: E. coli
T1 sequence (P04637 94-312, change not shown): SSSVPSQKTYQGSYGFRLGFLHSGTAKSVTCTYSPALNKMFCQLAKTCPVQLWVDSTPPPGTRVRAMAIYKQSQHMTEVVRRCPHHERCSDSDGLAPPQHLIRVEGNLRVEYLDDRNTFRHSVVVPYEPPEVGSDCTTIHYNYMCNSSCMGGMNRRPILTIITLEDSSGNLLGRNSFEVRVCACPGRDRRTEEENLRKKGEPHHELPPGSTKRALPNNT
The experiment is described as follows: In vitro DNA binding activity assay (HTRF / TR-FRET): stabilization of p53 Y220C and increase of its DNA binding activity. The class given is biochemical. The note with it: recombinant His-tagged p53 Y220C DNA binding domain (aa 94-312), biotin-labeled consensus DNA, incubated at 27° C. or 29° C. for 60 min. The gist of the method: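 Stabilization of the mutant is inferred from increased binding of His-tagged p53 Y220C to a biotin-labeled consensus DNA, detected by HTRF with europium-streptavidin and APC-anti-His antibody. The concentration giving a 50% rise over compound-free binding is reported as SC150.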
`COc1cc(S(=O)(=O)Nc2cc(C)on2)ccc1NCC#Cc1cc2c(NC3CCOCC3)cccc2n1CC(F)(F)F` [Compound 994A, 3-methoxy-N-(5-methyl-1,2-oxazol-3-yl)-4-[(3-{4-[(oxan-4-yl)amino]-1-(2,2,2-trifluoroethyl)-1H-indol-2-yl}prop-2-yn-1-yl)amino]benzene-1-sulfonamide]: the “SC150 (concentration of the compound required to increase the DNA binding activity by 50%)” value is recorded as “+ (+ = 0 μM ≤ SC150 < 0.05 μM)”.
As for `COc1cc(C(C)(C)C#N)ncc1NCC#Cc1cc2c(NC3CCOCC3)cccc2n1CC(F)(F)F` [Compound 995A, 2-{4-methoxy-5-[(3-{4-[(oxan-4-yl)amino]-1-(2,2,2-trifluoroethyl)-1H-indol-2-yl}prop-2-yn-1-yl)amino]pyridin-2-yl}-2-methylpropanenitrile], the “SC150 (concentration of the compound required to increase the DNA binding activity by 50%)” value is listed as “+ (+ = 0 μM ≤ SC150 < 0.05 μM)”.
`COc1cc(S(=O)(=O)N(C)CCO)ccc1NCC#Cc1cc2c(NC3CCOCC3)cccc2n1CC(F)(F)F` [Compound 996A, N-(2-hydroxyethyl)-3-methoxy-N-methyl-4-[(3-{4-[(oxan-4-yl)amino]-1-(2,2,2-trifluoroethyl)-1H-indol-2-yl}prop-2-yn-1-yl)amino]benzene-1-sulfonamide]: the “SC150 (concentration of the compound required to increase the DNA binding activity by 50%)” value was “+ (+ = 0 μM ≤ SC150 < 0.05 μM)”.
In the case of `COc1cc(S(C)(=O)=O)ccc1NCC#Cc1cc2c(NC3CCOCC3)cc(F)cc2n1CC(F)(F)F` [Compound 997A, 6-fluoro-2-{3-[(4-methanesulfonyl-2-methoxyphenyl)amino]prop-1-yn-1-yl}-N-(oxan-4-yl)-1-(2,2,2-trifluoroethyl)-1H-indol-4-amine], the “SC150 (concentration of the compound required to increase the DNA binding activity by 50%)” value is given as “+ (+ = 0 μM ≤ SC150 < 0.05 μM)”.
For the compound `COc1cc(S(N)(=O)=O)ccc1NCC#Cc1cc2c(NC3CCOCC3)cc(F)cc2n1CC(F)(F)F` [Compound 998A, 4-[(3-{6-fluoro-4-[(oxan-4-yl)amino]-1-(2,2,2-trifluoroethyl)-1H-indol-2-yl}prop-2-yn-1-yl)amino]-3-methoxybenzene-1-sulfonamide], the “SC150 (concentration of the compound required to increase the DNA binding activity by 50%)” value is listed as “+ (+ = 0 μM ≤ SC150 < 0.05 μM)”.
For `COc1cc(S(=O)(=O)N(C)C)ccc1NCC#Cc1cc2c(NC3CCOCC3)cccc2n1CC(F)(F)F` [Compound 999A, 3-methoxy-N,N-dimethyl-4-[(3-{4-[(oxan-4-yl)amino]-1-(2,2,2-trifluoroethyl)-1H-indol-2-yl}prop-2-yn-1-yl)amino]benzene-1-sulfonamide], the “SC150 (concentration of the compound required to increase the DNA binding activity by 50%)” value is given as “+ (+ = 0 μM ≤ SC150 < 0.05 μM)”.
For `COc1cc(S(=O)(=O)N2CCN(C(C)=O)CC2)ccc1NCC#Cc1cc2c(NC3CCOCC3)cccc2n1CC(F)(F)F` [Compound 1001A, 1-(4-{3-methoxy-4-[(3-{4-[(oxan-4-yl)amino]-1-(2,2,2-trifluoroethyl)-1H-indol-2-yl}prop-2-yn-1-yl)amino]benzenesulfonyl}piperazin-1-yl)ethan-1-one] the value was “+ (+ = 0 μM ≤ SC150 < 0.05 μM)”; for `COc1cc(S(=O)(=O)N2CCOCC2)ccc1NCC#Cc1cc2c(NC3CCOCC3)cccc2n1CC(F)(F)F` [Compound 1002A, 2-(3-{[2-methoxy-4-(morpholine-4-sulfonyl)phenyl]amino}prop-1-yn-1-yl)-N-(oxan-4-yl)-1-(2,2,2-trifluoroethyl)-1H-indol-4-amine], “+ (+ = 0 μM ≤ SC150 < 0.05 μM)”.
To `CNC(=O)c1ccc(NCC#Cc2cc3c(NC4CCOCC4)cccc3n2CC(F)(F)F)c(OC)c1` [Compound 1003A] belongs “+ (+ = 0 μM ≤ SC150 < 0.05 μM)”.
On to `COc1cc(S(=O)(=O)N(CCO)CCO)ccc1NCC#Cc1cc2c(NC3CCOCC3)cccc2n1CC(F)(F)F` [Compound 1007A, N,N-bis(2-hydroxyethyl)-3-methoxy-4-[(3-{4-[(oxan-4-yl)amino]-1-(2,2,2-trifluoroethyl)-1H-indol-2-yl}prop-2-yn-1-yl)amino]benzene-1-sulfonamide], for which the “SC150 (concentration of the compound required to increase the DNA binding activity by 50%)” value is “+ (+ = 0 μM ≤ SC150 < 0.05 μM)”.
As to `CNS(=O)(=O)c1ccc(NCC#Cc2cc3c(NC4CCOCC4)cccc3n2CC(F)(F)F)c(OC)c1` [Compound 1008A], the “SC150 (concentration of the compound required to increase the DNA binding activity by 50%)” value is listed as “+ (+ = 0 μM ≤ SC150 < 0.05 μM)”.
For the compound `CS(=O)(=O)c1ccc(NCC#Cc2cc3c(NC4CCOCC4)cccc3n2CC(F)(F)F)c(O)c1` [Compound 1009A, 5-methanesulfonyl-2-[(3-{4-[(oxan-4-yl)amino]-1-(2,2,2-trifluoroethyl)-1H-indol-2-yl}prop-2-yn-1-yl)amino]phenol], the “SC150 (concentration of the compound required to increase the DNA binding activity by 50%)” value is “+ (+ = 0 μM ≤ SC150 < 0.05 μM)”.
Turning to `COc1cc(S(N)(=O)=O)ccc1NCC#Cc1cc2c(NC3CCOCC3)c(OC)ccc2n1CC(F)(F)F` [Compound 1010A, 3-methoxy-4-[(3-{5-methoxy-4-[(oxan-4-yl)amino]-1-(2,2,2-trifluoroethyl)-1H-indol-2-yl}prop-2-yn-1-yl)amino]benzene-1-sulfonamide], the “SC150 (concentration of the compound required to increase the DNA binding activity by 50%)” value was “++++ (++++ = 0.2 μM ≤ SC150 < 1 μM)”.
For `COc1cc(S(=O)(=O)N2CCN(C)CC2)ccc1NCC#Cc1cc2c(NC3CCOCC3)cccc2n1CC(F)(F)F` [Compound 1011A, 2-[3-({2-methoxy-4-[(4-methylpiperazin-1-yl)sulfonyl]phenyl}amino)prop-1-yn-1-yl]-N-(oxan-4-yl)-1-(2,2,2-trifluoroethyl)-1H-indol-4-amine] the value was “+ (+ = 0 μM ≤ SC150 < 0.05 μM)”; for `COc1cc(S(C)(=O)=O)ccc1NCC#Cc1cc2c(NC3CCOCC3)c(OC)ccc2n1CC(F)(F)F` [Compound 1012A, 2-{3-[(4-methanesulfonyl-2-methoxyphenyl)amino]prop-1-yn-1-yl}-5-methoxy-N-(oxan-4-yl)-1-(2,2,2-trifluoroethyl)-1H-indol-4-amine], “++++ (++++ = 0.2 μM ≤ SC150 < 1 μM)”.
Consider `COc1cc(NC2CCOCC2)c2cc(C#CCNc3ccc(S(N)(=O)=O)cc3OC)n(CC(F)(F)F)c2c1` [Compound 1013A, 3-methoxy-4-[(3-{6-methoxy-4-[(oxan-4-yl)amino]-1-(2,2,2-trifluoroethyl)-1H-indol-2-yl}prop-2-yn-1-yl)amino]benzene-1-sulfonamide], for which the “SC150 (concentration of the compound required to increase the DNA binding activity by 50%)” value is on record as “+++ (+++ = 0.1 μM ≤ SC150 < 0.2 μM)”.
Turning to `CCC(=O)Oc1cc(S(C)(=O)=O)ccc1NCC#Cc1cc2c(NC3CCOCC3)cccc2n1CC(F)(F)F` [Compound 1014A, 5-methanesulfonyl-2-[(3-{4-[(oxan-4-yl)amino]-1-(2,2,2-trifluoroethyl)-1H-indol-2-yl}prop-2-yn-1-yl)amino]phenyl propanoate], the “SC150 (concentration of the compound required to increase the DNA binding activity by 50%)” value is “+ (+ = 0 μM ≤ SC150 < 0.05 μM)”.
With `COc1cc(S(C)(=O)=O)ccc1NCC#Cc1cc2c(N[C@@H]3CCO[C@@H](C)C3)cccc2n1CC(F)(F)F` [Compound 1016A, 2-{3-[(4-methanesulfonyl-2-methoxyphenyl)amino]prop-1-yn-1-yl}-N-[(2S,4R)-2-methyloxan-4-yl]-1-(2,2,2-trifluoroethyl)-1H-indol-4-amine], the “SC150 (concentration of the compound required to increase the DNA binding activity by 50%)” value is listed as “+ (+ = 0 μM ≤ SC150 < 0.05 μM)”.
On to `COc1cc(S(C)(=O)=O)ccc1NCC#Cc1cc2c(N[C@H]3CCO[C@@H](C)C3)cccc2n1CC(F)(F)F` [Compound 1017A, 2-{3-[(4-methanesulfonyl-2-methoxyphenyl)amino]prop-1-yn-1-yl}-N-[(2S,4S)-2-methyloxan-4-yl]-1-(2,2,2-trifluoroethyl)-1H-indol-4-amine], for which the “SC150 (concentration of the compound required to increase the DNA binding activity by 50%)” value is “+ (+ = 0 μM ≤ SC150 < 0.05 μM)”.
Consider `COc1cc(S(N)(=O)=O)ccc1NCC#Cc1cc2c(N[C@@H]3CCO[C@@H](C)C3)cccc2n1CC(F)(F)F` [Compound 1018A, 3-methoxy-4-{[3-(4-{[(2S,4R)-2-methyloxan-4-yl]amino}-1-(2,2,2-trifluoroethyl)-1H-indol-2-yl)prop-2-yn-1-yl]amino}benzene-1-sulfonamide], for which the “SC150 (concentration of the compound required to increase the DNA binding activity by 50%)” value is “+ (+ = 0 μM ≤ SC150 < 0.05 μM)”.
On to `COc1cc(S(N)(=O)=O)ccc1NCC#Cc1cc2c(N[C@H]3CCO[C@@H](C)C3)cccc2n1CC(F)(F)F` [Compound 1019A, 3-methoxy-4-{[3-(4-{[(2S,4S)-2-methyloxan-4-yl]amino}-1-(2,2,2-trifluoroethyl)-1H-indol-2-yl)prop-2-yn-1-yl]amino}benzene-1-sulfonamide], for which the “SC150 (concentration of the compound required to increase the DNA binding activity by 50%)” value was “+ (+ = 0 μM ≤ SC150 < 0.05 μM)”.
As for `COc1cc(C(N)=O)ccc1NCC#Cc1cc2c(N[C@@H]3CCO[C@@H](C)C3)cccc2n1CC(F)(F)F` [Compound 1020A, 3-methoxy-4-{[3-(4-{[(2S,4R)-2-methyloxan-4-yl]amino}-1-(2,2,2-trifluoroethyl)-1H-indol-2-yl)prop-2-yn-1-yl]amino}benzamide], the “SC150 (concentration of the compound required to increase the DNA binding activity by 50%)” value was “+ (+ = 0 μM ≤ SC150 < 0.05 μM)”.
Take `COc1cc(C(N)=O)ccc1NCC#Cc1cc2c(N[C@H]3CCO[C@@H](C)C3)cccc2n1CC(F)(F)F` [Compound 1021A, 3-methoxy-4-{[3-(4-{[(2S,4S)-2-methyloxan-4-yl]amino}-1-(2,2,2-trifluoroethyl)-1H-indol-2-yl)prop-2-yn-1-yl]amino}benzamide]: the “SC150 (concentration of the compound required to increase the DNA binding activity by 50%)” value is “+ (+ = 0 μM ≤ SC150 < 0.05 μM)”.
To `COc1cc(S(C)(=O)=O)ccc1NCC#Cc1cc2c(N[C@H]3CCOC[C@@H]3OC)cccc2n1CC(F)(F)F` [Compound 1023A, 2-(3-((2-methoxy-4-(methylsulfonyl)phenyl)amino)prop-1-yn-1-yl)-N-((3R,4S)-3-methoxytetrahydro-2H-pyran-4-yl)-1-(2,2,2-trifluoroethyl)-1H-indol-4-amine] belongs “++ (++ = 0.05 μM ≤ SC150 < 0.1 μM)”.
